Assay results from PMC12037410, “Pharmacological targeting of BMAL1 modulates circadian and immune pathways” (Nature Chemical Biology, 2025).

The molecules below were run against BMAL1 (Homo sapiens, UniProt O00327). Settings: dTmB; binder.
Set-up: PASB domain (residues 338–449); Protein thermal shift (PTS) fragment screen on recombinant human BMAL1(PASB), shift of melting temperature

Chain of BMAL1 (O00327 338-449): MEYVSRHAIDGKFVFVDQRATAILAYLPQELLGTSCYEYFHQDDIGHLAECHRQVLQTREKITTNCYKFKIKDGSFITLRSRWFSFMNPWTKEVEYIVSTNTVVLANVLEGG

SMILES	Bmal1(PASB) dTmB
Cn1ccccc1=O [Prestw-Frag-2410, Compound 227]	-0.12 °C
COC(=O)C(O)c1ccccc1 (stereo not drawn) [Prestw-Frag-2423, Compound 176]	0.02 °C
CCN(CCCCO)C(C)Cc1ccc(OC)cc1 (stereo not drawn) [Prestw-Frag-2440, Compound 249]	-0.23 °C
Nc1ccccn1 [Prestw-Frag-2443, Compound 228]	0.09 °C
COCCOC(=O)c1ccc(N)cc1 [Prestw-Frag-2453, Compound 317]	-0.58 °C
O=C1CCc2ccccc2N1 [Prestw-Frag-2464, Compound 16]	-2.13 °C
Nc1ccccc1S(N)(=O)=O [Prestw-Frag-2473, Compound 242]	0.04 °C
CCOc1ccccn1 [Prestw-Frag-2477, Compound 94]	-0.05 °C
COC(=O)C(O)(c1ccccc1)C1CCCC1 (stereo not drawn) [Prestw-Frag-2484, Compound 442]	-1.34 °C
CC(=O)N(CCC(=O)O)c1ccccc1 [Prestw-Frag-2487, Compound 222]	0.04 °C
c1ccc2cnccc2c1 [Prestw-Frag-2493, Compound 131]	-0.12 °C
COc1ccc(O)cc1O [Prestw-Frag-2499, Compound 11]	0.28 °C
c1cnccn1 [Prestw-Frag-2501, Compound 209]	0.00 °C
CC(=O)c1ccc(O)cc1O [Prestw-Frag-2506, Compound 162]	0.21 °C
OCc1ccc(O)cc1 [Prestw-Frag-2532, Compound 453]	-0.16 °C
c1ccc(C2CCNCC2)cc1 [Prestw-Frag-2537, Compound 310]	-0.53 °C
S=c1[nH]c2ccccc2[nH]1 [Prestw-Frag-2539, Compound 1]	6.28 °C
O=C(O)c1cccnc1 [Prestw-Frag-2541, Compound 64]	-0.10 °C
O=c1[nH]snc1N1CCOCC1 [Prestw-Frag-2562, Compound 37]	-0.14 °C
ClC1(Cl)CC1c1ccccc1 (stereo not drawn) [Prestw-Frag-2566, Compound 328]	0.06 °C
O=C(O)CNC(=O)c1ccccc1 [Prestw-Frag-2576, Compound 196]	0.18 °C
O=C(O)COc1ccccc1 [Prestw-Frag-2577, Compound 147]	0.25 °C

SMILES	Bmal1(PASB) dTmB
NC(=O)COc1ccccc1 [Prestw-Frag-2578, Compound 235]	-0.19 °C
O=C(O)Cc1ccccc1 [Prestw-Frag-2579, Compound 132]	-0.05 °C
NC(=O)Cc1ccccc1 [Prestw-Frag-2580, Compound 73]	-0.74 °C
NC(=O)c1ccncc1 [Prestw-Frag-2587, Compound 181]	0.25 °C
Oc1cccc2cccnc12 [Prestw-Frag-2592, Compound 119]	-0.26 °C
Clc1cccc2ncccc12 [Prestw-Frag-2593, Compound 66]	-0.75 °C
OC1c2ccccc2CCc2ccccc21 [Prestw-Frag-2600, Compound 464]	-1.43 °C
c1ccc(CCn2ccnc2)cc1 [Prestw-Frag-2608, Compound 366]	-0.49 °C
c1ccc(Cn2ccnc2)cc1 [Prestw-Frag-2620, Compound 329]	-0.49 °C
c1ccc(C(c2ccccc2)n2cncn2)cc1 [Prestw-Frag-2645, Compound 443]	-2.46 °C
N#CC1(c2ccc(F)cc2)CCCCC1 [Prestw-Frag-2647, Compound 433]	-0.64 °C
CC1(c2ccccc2)NC(=O)NC1=O (stereo not drawn) [Prestw-Frag-2652, Compound 273]	-0.17 °C
Cc1ccc(C#N)c(=O)[nH]1 [Prestw-Frag-2669, Compound 177]	-0.34 °C
O=C1CCCc2[nH]ccc21 [Prestw-Frag-2675, Compound 219]	0.11 °C
O=C(O)CCc1ncc(-c2ccccc2)o1 [Prestw-Frag-2693, Compound 126]	0.10 °C
Cc1nc(-c2ccccc2)c(-c2ccccc2)o1 [Prestw-Frag-2695, Compound 471]	-2.25 °C
COc1ccc(C(C)=O)c(O)c1 [Prestw-Frag-2701, Compound 250]	0.06 °C
Oc1ccccc1C1CCCC1 [Prestw-Frag-2706, Compound 472]	-2.14 °C
CN1C(=O)CCC1=O [Prestw-Frag-2713, Compound 293]	0.17 °C
NC(N)=NC(N)=Nc1ccc(Cl)cc1 [Prestw-Frag-2722, Compound 143]	-0.89 °C
CCCOc1ccc(C(=O)OCC)cc1N [Prestw-Frag-2724, Compound 416]	-1.52 °C
CS(=O)(=O)Nc1ccccc1 [Prestw-Frag-2755, Compound 281]	-0.10 °C

SMILES	Bmal1(PASB) dTmB
O=c1ccn([C@H]2C[C@H](O)[C@@H](CO)O2)c(=O)[nH]1 [Prestw-Frag-2769, Compound 275]	0.09 °C
CCN(CC)CCOC(=O)C1(c2ccccc2)CCCC1 [Prestw-Frag-2774, Compound 413]	-1.85 °C
c1ccc2c3c([nH]c2c1)CCCC3 [Prestw-Frag-2780, Compound 46]	-0.19 °C
CCNC(=O)c1cccnc1 [Prestw-Frag-2794, Compound 205]	0.17 °C
COC(=O)c1c[nH]c2ccccc12 [Prestw-Frag-2799, Compound 456]	-0.14 °C
OC1CCN(c2ccccc2F)CC1 [Prestw-Frag-2803, Compound 151]	-0.09 °C
Cc1ccccc1Nc1ncccc1C(=O)O [Prestw-Frag-2806, Compound 441]	0.29 °C
O=C(O)c1cccnc1Nc1cccc(Cl)c1 [Prestw-Frag-2807, Compound 229]	-0.34 °C
NCCCOc1cccc(CN2CCCCC2)c1 [Prestw-Frag-2808, Compound 156]	-1.04 °C
Oc1cccc(CN2CCCCC2)c1 [Prestw-Frag-2809, Compound 115]	-0.43 °C
CCNC(=O)c1ccc(Cl)cc1 [Prestw-Frag-2818, Compound 347]	-0.36 °C
Nc1cccc(O)c1 [Prestw-Frag-2826, Compound 83]	-0.56 °C
C[C@@H](O)c1cc(C(F)(F)F)cc(C(F)(F)F)c1 [Prestw-Frag-2849, Compound 236]	-0.34 °C
Clc1cccc(N2CCNCC2)c1Cl [Prestw-Frag-2853, Compound 42]	-1.63 °C
O=C1CCc2ccc(O)cc2N1 [Prestw-Frag-2854, Compound 80]	-0.98 °C
c1ccc(C(c2ccccc2)n2ccnc2)cc1 [Prestw-Frag-2868, Compound 465]	-6.29 °C
c1ccc(-c2nn[nH]n2)cc1 [Prestw-Frag-2887, Compound 426]	0.51 °C
Oc1cc(Cl)c(Cl)cc1Cl [Prestw-Frag-2898, Compound 59]	-0.02 °C
O=C(c1ccccc1)c1ccc(Br)cc1 [Prestw-Frag-2912, Compound 22]	-1.94 °C
CC(C)(C)OC(=O)/C=C/c1ccccc1 [Prestw-Frag-2947, Compound 382]	-0.17 °C
c1ccc(C2CNCCO2)cc1 (stereo not drawn) [Prestw-Frag-2958, Compound 322]	-0.55 °C
COc1ccc(CC(=O)O)cc1 [Prestw-Frag-2960, Compound 158]	0.16 °C

SMILES	Bmal1(PASB) dTmB
Nc1nc2c(s1)CCCC2 [Prestw-Frag-2972, Compound 480]	-5.59 °C
CCOc1ccccc1OCC1CNCCO1 (stereo not drawn) [Prestw-Frag-2992, Compound 332]	-0.48 °C
CCOc1ccccc1O [Prestw-Frag-2995, Compound 314]	-0.47 °C
c1ccc(-n2ccc3ccccc32)cc1 [Prestw-Frag-3011, Compound 447]	-0.07 °C
CNS(=O)(=O)Cc1ccc2[nH]cc(CCN)c2c1 [Prestw-Frag-3017, Compound 50]	0.72 °C
c1ccc2nccnc2c1 [Prestw-Frag-3033, Compound 315]	0.23 °C
O=C1c2nccnc2C(O)N1c1ccc(Cl)cn1 (stereo not drawn) [Prestw-Frag-3046, Compound 93]	-0.98 °C
Cc1ccc(N)c(C#N)c1 [Prestw-Frag-3060, Compound 394]	-0.18 °C
OCCc1ccc(Cl)cc1 [Prestw-Frag-3062, Compound 418]	0.02 °C
O=C1c2ccc(Cl)cc2CCc2cccnc21 [Prestw-Frag-3073, Compound 431]	-4.79 °C
CCN(CC)C(=O)/C=C/c1ccccc1 [Prestw-Frag-3088, Compound 429]	-1.63 °C
O=C(O)/C=C/c1cnc[nH]1 [Prestw-Frag-3090, Compound 19]	-1.08 °C
OCc1ccc(F)cc1F [Prestw-Frag-3100, Compound 349]	0.05 °C
OCCn1cncn1 [Prestw-Frag-3101, Compound 350]	0.19 °C
CCCCc1nc(Cl)c(CO)[nH]1 [Prestw-Frag-3114, Compound 336]	0.07 °C
CCN(CC)CCNC(=O)c1ccc(N)c(Cl)c1 [Prestw-Frag-3120, Compound 278]	-0.15 °C
c1ccc2c(c1)CCCN2 [Prestw-Frag-3137, Compound 43]	0.06 °C
Fc1cccnc1N1CCCC1 [Prestw-Frag-3150, Compound 24]	-0.14 °C
COc1ccc2c(c1)CCCC2 [Prestw-Frag-3188, Compound 32]	-0.52 °C
Nc1nc(N)nc(-c2ccccc2)n1 [Prestw-Frag-3190, Compound 387]	-0.27 °C
O=C(Cc1ccccc1F)C1CC1 [Prestw-Frag-3198, Compound 60]	-1.49 °C
